For 11 compounds, IC50 results are on record in patent publication US7820623B2 (priority 2006, dated 2010).

Where two headings read alike, the source gives them in different places. Bridge positions count the residues as written; N and C are the ends. Square brackets hold non-standard residues; d marks the D form. Peptide text beside a SMILES is read from it. 1Nal = N[C@@H](Cc1cccc2ccccc12)C(=O)O

The subject of assay [1] is thapsigargin-induced IFN-g production in human whole blood. In kind it is cell-based.
Assay [2] deals with thapsigargin-induced IL-2 production in human whole blood.
Setting [3] is: read-out: Analogue Activity (IC50) WB/IFNg.
Setting [4] is: read-out: Analogue Activity (IC50) WB/IL-2.

In the case of `CC[C@H](C)[C@@H]1NC(=O)[C@H](CCCCN)NC(=O)[C@@H](NC(=O)[C@H](CCCCN)NC(=O)[C@@H](NC(=O)[C@H](CC(N)=O)NC(=O)[C@@H](NC(=O)[C@@H](NC(=O)[C@@H](NC(=O)CN)C(C)C)[C@@H](C)CC)[C@@H](C)CC)C(C)C)CSSC[C@@H]2NC(=O)[C@H](CCCCN)NC(=O)[C@H](Cc3cccc4ccccc34)NC(=O)[C@H](Cc3ccccc3)NC(=O)[C@H](CCCNC(=N)N)NC(=O)[C@H](CCSC)NC(=O)CNC(=O)[C@H](C)NC(=O)[C@H](CCCCN)NC(=O)[C@H](CCCCN)NC(=O)[C@@H]3CSSC[C@@H](C(=O)N[C@H](C(=O)N4CCC[C@H]4C(=O)N[C@@H](CCCCN)C(=O)O)[C@@H](C)O)NC(=O)[C@H](Cc4c[nH]cn4)NC(=O)[C@H](CSSC[C@H](NC(=O)[C@H](CCC(N)=O)NC(=O)[C@H](CCCNC(=N)N)NC(=O)[C@H](CO)NC1=O)C(=O)N[C@@H](CC(C)C)C(=O)N[C@@H](CCC(=O)O)C(=O)N1CCC[C@H]1C(=O)N3)NC(=O)[C@H](CCCCN)NC(=O)CNC(=O)[C@H](CC(N)=O)NC(=O)[C@H](CCSC)NC2=O` [G26Nal] (H-GVIINVKCKISRQCLEPCKKAGMRF[1Nal]KCMNGKCHCTPK-OH; disulfide 8-28, 14-33, 18-35), the IC50 in assay [1] (setting [3]) was 10.7 nM; in assay [2] (setting [4]) it was 9.9 nM.
Regarding `CC[C@H](C)[C@@H]1NC(=O)[C@H](CCCCN)NC(=O)[C@@H](NC(=O)[C@H](CCCCN)NC(=O)[C@@H](NC(=O)[C@H](CC(N)=O)NC(=O)[C@@H](NC(=O)[C@@H](NC(=O)[C@H](CCC(=O)O)NC(=O)CN)[C@@H](C)CC)[C@@H](C)CC)C(C)C)CSSC[C@@H]2NC(=O)[C@H](CCCCN)NC(=O)CNC(=O)[C@H](Cc3ccccc3)NC(=O)[C@H](CCCNC(=N)N)NC(=O)[C@H](CCSC)NC(=O)CNC(=O)[C@H](C)NC(=O)[C@H](CCCCN)NC(=O)[C@H](CCCCN)NC(=O)[C@@H]3CSSC[C@@H](C(=O)N[C@H](C(=O)N4CCC[C@H]4C(=O)N[C@@H](CCCCN)C(=O)O)[C@@H](C)O)NC(=O)[C@H](Cc4c[nH]cn4)NC(=O)[C@H](CSSC[C@H](NC(=O)[C@H](CCC(N)=O)NC(=O)[C@H](CCCNC(=N)N)NC(=O)[C@H](CO)NC1=O)C(=O)N[C@@H](CC(C)C)C(=O)N[C@@H](CCC(=O)O)C(=O)N1CCC[C@H]1C(=O)N3)NC(=O)[C@H](CCCCN)NC(=O)CNC(=O)[C@H](CC(N)=O)NC(=O)[C@H](CCSC)NC2=O` [V2E] (H-GEIINVKCKISRQCLEPCKKAGMRFGKCMNGKCHCTPK-OH; disulfide 8-28, 14-33, 18-35), the IC50 came to 0.184 nM in assay [1] (setting [3]) and 0.097 nM in assay [2] (setting [4]).
Consider `CC[C@H](C)[C@@H]1NC(=O)[C@H](CCCCN)NC(=O)[C@@H](NC(=O)[C@H](CCCCN)NC(=O)[C@@H](NC(=O)[C@H](CC(N)=O)NC(=O)[C@@H](NC(=O)[C@@H](NC(=O)[C@@H](NC(=O)CN)C(C)C)[C@@H](C)CC)[C@@H](C)CC)C(C)C)CSSC[C@@H]2NC(=O)[C@H](CCCCN)NC(=O)CNC(=O)[C@H](Cc3ccccc3)NC(=O)[C@H](CCCNC(=N)N)NC(=O)[C@H](CCSC)NC(=O)CNC(=O)[C@H](C)NC(=O)[C@H](Cc3cccc4ccccc34)NC(=O)[C@H](CCCCN)NC(=O)[C@@H]3CSSC[C@@H](C(=O)N[C@H](C(=O)N4CCC[C@H]4C(=O)N[C@@H](CCCCN)C(=O)O)[C@@H](C)O)NC(=O)[C@H](Cc4c[nH]cn4)NC(=O)[C@H](CSSC[C@H](NC(=O)[C@H](CCC(N)=O)NC(=O)[C@H](CCCNC(=N)N)NC(=O)[C@H](CO)NC1=O)C(=O)N[C@@H](CC(C)C)C(=O)N[C@@H](CCC(=O)O)C(=O)N1CCC[C@H]1C(=O)N3)NC(=O)[C@H](CCCCN)NC(=O)CNC(=O)[C@H](CC(N)=O)NC(=O)[C@H](CCSC)NC2=O` [K20Nal] (H-GVIINVKCKISRQCLEPCK[1Nal]AGMRFGKCMNGKCHCTPK-OH; disulfide 8-28, 14-33, 18-35), for which the IC50 in assay [1] (setting [3]) turned out to be 0.125 nM; in assay [2] (setting [4]), 0.074 nM.
Consider `CC[C@H](C)[C@@H]1NC(=O)[C@H](CCCCN)NC(=O)[C@@H](NC(=O)[C@H](CCCCN)NC(=O)[C@@H](NC(=O)[C@H](CC(N)=O)NC(=O)[C@@H](NC(=O)[C@@H](NC(=O)[C@@H](NC(=O)CN)C(C)C)[C@@H](C)CC)[C@@H](C)CC)C(C)C)CSSC[C@@H]2NC(=O)[C@H](CCCCN)NC(=O)[C@H](C)NC(=O)[C@H](Cc3ccccc3)NC(=O)[C@H](CCCNC(=N)N)NC(=O)[C@H](CCSC)NC(=O)CNC(=O)[C@H](C)NC(=O)[C@H](CCCCN)NC(=O)[C@H](CCCCN)NC(=O)[C@@H]3CSSC[C@@H](C(=O)N[C@H](C(=O)N4CCC[C@H]4C(=O)N[C@@H](CCCCN)C(=O)O)[C@@H](C)O)NC(=O)[C@H](Cc4c[nH]cn4)NC(=O)[C@H](CSSC[C@H](NC(=O)[C@H](CCC(N)=O)NC(=O)[C@H](CCCNC(=N)N)NC(=O)[C@H](CO)NC1=O)C(=O)N[C@@H](CC(C)C)C(=O)N[C@@H](CCC(=O)O)C(=O)N1CCC[C@H]1C(=O)N3)NC(=O)[C@H](CCCCN)NC(=O)CNC(=O)[C@H](CC(N)=O)NC(=O)[C@H](CCSC)NC2=O` [G26A] (H-GVIINVKCKISRQCLEPCKKAGMRFAKCMNGKCHCTPK-OH; disulfide 8-28, 14-33, 18-35), for which the IC50 in assay [1] (setting [3]) came out at 10.7 nM; in assay [2] (setting [4]), 12.1 nM.
For `CC[C@H](C)[C@@H]1NC(=O)[C@H](CCCCN)NC(=O)[C@@H](NC(=O)[C@H](CCCCN)NC(=O)[C@@H](NC(=O)[C@H](CC(N)=O)NC(=O)[C@@H](NC(=O)[C@@H](NC(=O)[C@@H](NC(=O)CN)C(C)C)[C@@H](C)CC)[C@@H](C)CC)C(C)C)CSSC[C@@H]2NC(=O)[C@H](CCCNC(=N)N)NC(=O)CNC(=O)[C@H](Cc3ccccc3)NC(=O)[C@H](CCCNC(=N)N)NC(=O)[C@H](CCSC)NC(=O)CNC(=O)[C@H](C)NC(=O)[C@H](CCCCN)NC(=O)[C@H](CCCCN)NC(=O)[C@@H]3CSSC[C@@H](C(=O)N[C@H](C(=O)N4CCC[C@H]4C(=O)N[C@@H](CCCCN)C(=O)O)[C@@H](C)O)NC(=O)[C@H](Cc4c[nH]cn4)NC(=O)[C@H](CSSC[C@H](NC(=O)[C@H](CCC(N)=O)NC(=O)[C@H](CCCNC(=N)N)NC(=O)[C@H](CO)NC1=O)C(=O)N[C@@H](CC(C)C)C(=O)N[C@@H](CCC(=O)O)C(=O)N1CCC[C@H]1C(=O)N3)NC(=O)[C@H](CCCCN)NC(=O)CNC(=O)[C@H](CC(N)=O)NC(=O)[C@H](CCSC)NC2=O` [K27R] (H-GVIINVKCKISRQCLEPCKKAGMRFGRCMNGKCHCTPK-OH; disulfide 8-28, 14-33, 18-35) the same measures were 10.7 nM and 15.1 nM.
Consider “GVIINVKCAISRQCLEPCKKAGMRFGKCMNGKCHCTPK [Ala-9 (SEQ ID No: 1407)]”, for which the IC50 was 0.0711 nM in assay [1] (read-out: Average IC50 IFNg) and 0.0796 nM in assay [2] (read-out: Average IC50 IL-2).
On to `CC[C@H](C)[C@@H]1NC(=O)[C@H](CCCCN)NC(=O)[C@@H](NC(=O)[C@H](CCCCN)NC(=O)[C@@H](NC(=O)[C@H](CC(N)=O)NC(=O)[C@@H](NC(=O)[C@@H](NC(=O)[C@@H](NC(=O)CN)C(C)C)[C@@H](C)CC)[C@@H](C)CC)C(C)C)CSSC[C@@H]2NC(=O)[C@H](CCCCN)NC(=O)CNC(=O)[C@H](Cc3ccccc3)NC(=O)[C@H](CCCNC(=N)N)NC(=O)[C@H](C)NC(=O)CNC(=O)[C@H](C)NC(=O)[C@H](CCCCN)NC(=O)[C@H](CCCCN)NC(=O)[C@@H]3CSSC[C@@H](C(=O)N[C@H](C(=O)N4CCC[C@H]4C(=O)N[C@@H](CCCCN)C(=O)O)[C@@H](C)O)NC(=O)[C@H](Cc4c[nH]cn4)NC(=O)[C@H](CSSC[C@H](NC(=O)[C@H](CCC(N)=O)NC(=O)[C@H](CCCNC(=N)N)NC(=O)[C@H](CO)NC1=O)C(=O)N[C@@H](CC(C)C)C(=O)N[C@@H](CCC(=O)O)C(=O)N1CCC[C@H]1C(=O)N3)NC(=O)[C@H](CCCCN)NC(=O)CNC(=O)[C@H](CC(N)=O)NC(=O)[C@H](CCSC)NC2=O` [M23A] (H-GVIINVKCKISRQCLEPCKKAGARFGKCMNGKCHCTPK-OH; disulfide 8-28, 14-33, 18-35), for which the IC50 in assay [1] (setting [3]) and in assay [2] (setting [4]) was 0.275 nM each time.
In the case of “GVIINVKCKISRQCLEPCKKAGARFGKCMNGKCHCTPK [Ala-23 (SEQ ID No: 1419)]”, the IC50 in assay [1] (read-out: Average IC50 IFNg) and in assay [2] (read-out: Average IC50 IL-2) was 0.275 nM throughout.
Regarding “GVIINVKCKISAQCLEPCKKAGMRFGKCMNGKCHCTPK [Ala-12 (SEQ ID No: 1410)]”, the IC50 in assay [1] (read-out: Average IC50 IFNg) was determined as 0.155 nM; in assay [2] (read-out: Average IC50 IL-2) it was 0.123 nM.
Taken in the same sequence, the figures for “GVIINVKCKISRQCLEPCKAAGMRFGKCMNGKCHCTPK [Ala-20 (SEQ ID No: 1416)]” were 0.379 nM and 0.379 nM.
As to `CC[C@H](C)[C@H](NC(=O)[C@@H](NC(=O)CN)C(C)C)C(=O)N[C@H](C(=O)N[C@@H](CC(N)=O)C(=O)N[C@H](C(=O)N[C@@H](CCCCN)C(=O)N[C@H]1CSSC[C@@H]2NC(=O)[C@H](CCCCN)NC(=O)CNC(=O)[C@H](Cc3ccccc3)NC(=O)[C@H](CCCNC(=N)N)NC(=O)[C@H](CCSC)NC(=O)CNC(=O)[C@H](C)NC(=O)[C@H](CCCCN)NC(=O)[C@H](CCCCN)NC(=O)[C@@H]3CSSC[C@@H](C(=O)N[C@H](C(=O)N4CCC[C@H]4C(=O)N[C@@H](CCCCN)C(=O)O)[C@@H](C)O)NC(=O)[C@H](Cc4c[nH]cn4)NC(=O)[C@H](CSSC[C@H](NC(=O)[C@H](CCC(N)=O)NC(=O)[C@H](CCCNC(=N)N)NC(=O)[C@H](CO)NC(=O)[C@H](CCC(=O)O)NC(=O)[C@H](CCCCN)NC1=O)C(=O)N[C@@H](CC(C)C)C(=O)N[C@@H](CCC(=O)O)C(=O)N1CCC[C@H]1C(=O)N3)NC(=O)[C@H](CCCCN)NC(=O)CNC(=O)[C@H](CC(N)=O)NC(=O)[C@H](CCSC)NC2=O)C(C)C)[C@@H](C)CC` [I10E] (H-GVIINVKCKESRQCLEPCKKAGMRFGKCMNGKCHCTPK-OH; disulfide 8-28, 14-33, 18-35), the IC50 in assay [1] (setting [3]) came to 2.74 nM; in assay [2] (setting [4]), 2.57 nM.
